In publication PMC9266004, “Potential Common Mechanisms of Cytotoxicity Induced by Amide Herbicides via TRPA1 Channel Activation” (International Journal of Environmental Research and Public …, 2022):
Where two headings read alike, the source gives them in different places.

Columns and labels:
TRPA1 mRNA in A549 cells = test: RT-qPCR of TRPA1 mRNA; type: cell-based, human; details: for TRPA1 mRNA expression with HC-030031 pre-treatment compared with AHs treatment alone: HC-030031 50 μM, AHs 150, 300, 600 μM; for expression of TRPA1 mRNA compared with 0 μM AHs: significant at one or more of 150, 300, 600 μM
Experimental: (§1) Wild-type (WT) and TRPA1-KO A549 cells were cultured in McCoy’s 5A Media and F-12K Nutrient Mixture containing 10% fetal bovine serum, respectively. WT/TRPA1-KO A549 cells (5 × 10^4 cells/mL) were seeded in 96-well (100 μL/well) and 6-well (2 mL/well) plates and incubated at 37 °C with 5% CO2 in a humidified incubator for 24 h. WT/TRPA1-KO A549 cells were treated with AHs gradient concentrations (0, 150, 300, 600, 1200 μM) prepared in methanol (1.2 M) for 24 h. […]
TRIzol Reagent (1 mL) was directly added to WT/TRPA1-KO A549 cells in 6-well plates and total RNA was extracted according to the manufacturer’s instructions. Total RNA was used for cDNA reverse transcription, which was performed according to the PrimeScript RT protocol with the following reaction conditions: 42 °C for 2 min, 4 °C for ∞ (removal of genomic DNA), 37 °C for 15 min, 85 °C for 5 s, and 4 °C for ∞ (reverse transcriptional reaction). RT-qPCR was performed according to the TB Green Premix Ex Taq II protocol. Primer sequences and product lengths were as follows: hTRPA1 (107 bp) forward primer 5′-[…]-3′, reverse primer 5′-[…]-3′; hβ-actin (184 bp) forward primer 5′-[…]-3′, reverse primer 5′-[…]-3′. RT-qPCR was performed using the CFX96 Real-Time System (Bio-Rad Laboratories, Hercules, CA, USA) using the following reaction conditions: 95 °C for 30 s, 40 cycles of 95 °C for 5 s, 60 °C for 30 s, and 72 °C for 30 s, followed by a melting curve from 65 to 95 °C in 0.5 °C/5 s increments. Calculations were performed using the CFX Manager^TM Version 1.0 software (Bio-Rad Laboratories Ltd., Hercules, CA, USA) and are represented as fold change in expression [2^ΔΔC(t)] on a linear scale.

[1] = tested on: calcium influx in A549 cells; test: Cellular calcium imaging (Fluo-4) in WT A549 cells; type: cell-based, human; details: for calcium influx compared with 0 μM AHs: A549 cells, 150, 300, 600, 1200 μM; for calcium influx with HC-030031 pre-treatment compared with AHs treatment alone: A549 cells, HC-030031 50 μM, AHs 150-1200 μM
Experimental: as §1
(§2) Working solution was prepared according to the instructions of the Fluo-4 Direct calcium assay kit and directly added to WT/TRPA1-KO A549 cells in 96-well plates, which were incubated for 0.5 h and kept away from light after removal from the incubator. Single channel fluorescein isothiocyanate (FITC) levels were measured using a confocal high-content imaging system (IXM-C S150069, Molecular Devices, San Jose, CA, USA).

[2] = target: hTRPA1 ARD recombinant protein (Homo sapiens, UniProt O75762); test: LSPR binding analysis (OpenSPR, COOH chip); details: for kon: read-out: association constant (ka); for koff: read-out: dissociation constant (kd)
Experimental: The binding capacity of hTRPA1 ARD recombinant protein and AHs was determined by LSPR according to the OpenSPR (Nicoya Life Sciences, Kitchener, ON, Canada) operating procedure using the COOH chip. After the baseline signal was obtained, the sample was washed with 200 µL 80% isopropyl alcohol for 10 s, and 200 µL ethylcarbodiimide/N-hydroxysuccinimide solution was added. The sample loop was rinsed with phosphate-buffered saline (PBS). hTRPA1 (5 µL) was diluted with PBS, incubated for 4 min, and 200 µL blocking solution was added. […] Contact and dissociation time of analytes and protein were 240 s and 160 s, respectively. TraceDrawer software was applied to determine the association constant (ka), dissociation constant (kd), and affinity constant (KD) using a 1:1 model.

A549 cells = test: CCK-8 cell viability assay in WT A549 cells; type: cell-based, human; details: for viability of A549 cells compared with 0 μM AHs: 150, 300, 600, 1200 μM, 24 h; for viability of A549 cells compared with 0 μM AHs / IC50: CCK-8; for viability with HC-030031 pre-treatment compared with AHs treatment alone: A549 cells, HC-030031 50 μM, AHs 150, 300, 600 μM
Experimental: as §1
To conduct the cell viability assay, the growth medium was removed from WT/TRPA1-KO A549 cells cultured in a 96-well plate. CCK-8 reagent was mixed with complete medium (1:9 volume ratio), and 100 µL of the CCK-8 reagent mixture was added to each well. The plate was incubated for 4 h and the absorbance was measured at 450 nm using a microplate reader (BNR05740; Molecular Devices, Sunnyvale, CA, USA). The average absorbance from each sextuplicate set of wells was calculated and the background control value was subtracted from each absorbance value. The percentage cell viability was determined using the following equation:cell viability (%) = [(As − Ab)/(Ac − Ab)] × 100% where As is the absorbance of the experimental well (containing medium, CCK-8 reagent, cells, and compound); Ac is the absorbance of the control well (containing medium, CCK-8 reagent, and cells); and Ab is the absorbance of the blank well (containing medium and CCK-8 reagent).

[3] = tested on: calcium influx in TRPA1-KO A549 cells; test: Cellular calcium imaging (Fluo-4) in TRPA1-KO A549 cells; type: cell-based, human; details: AHs 150-1200 μM
Experimental: The hTRPA1 gene sequence (Gene ID: 8989) was obtained from the National Center for Biotechnology Information (NCBI) website (https://www.ncbi.nlm.nih.gov/gene/8989 accessed on 26 May 2022). Three gRNA sequences, namely, T1: 5′-[…]-[…], T16: 5′-[…]-3′, and T20: 5′-[…]-3′, were designed using the CRISPR online design tool (http://crispr.mit.edu/ accessed on 26 May 2022). Transfection of cells with gRNA-Cas9 was validated in test cells. Cell pool examination was performed using Sanger sequencing. Sequencing and tracer analysis were performed using the online tool TIDE (https://tide-calculator.nki.nl/ accessed on 26 May 2022) to investigate the cleavage efficiency of T1, T16, and T20. Cells from the cell pool were diluted in 96-well plates. Clones were observed under a microscope and wells containing single cell clones were labeled. Single cell clones were transferred to 24-well plates for expansion. Validation of knockout (KO) clones was performed via sequencing to confirm insertion and deletion on the genomes of KO clone candidates. Furthermore, mycoplasmas were detected for cloned cells with high KO using the Mycoplasma PCR Detection Kit.
Wild-type (WT) and TRPA1-KO A549 cells were cultured in McCoy’s 5A Media and F-12K Nutrient Mixture containing 10% fetal bovine serum, respectively. WT/TRPA1-KO A549 cells (5 × 10^4 cells/mL) were seeded in 96-well (100 μL/well) and 6-well (2 mL/well) plates and incubated at 37 °C with 5% CO2 in a humidified incubator for 24 h. WT/TRPA1-KO A549 cells were treated with AHs gradient concentrations (0, 150, 300, 600, 1200 μM) prepared in methanol (1.2 M) for 24 h. Additionally, WT/TRPA1-KO A549 cells were pre-treated with TRPA1 special inhibitor HC-030031 (100 μM) for 0.5 h and then treated with AHs gradient concentrations for 24 h.
as §2

[4] = Homo sapiens, WT A549 cells, 24 h treatment, read-out: IC50 values of AHs, A549 Cells
[5] = WT A549 cells pre-treated with HC-030031 50 μM, then AHs 24 h, read-out: IC50 values of AHs, A549 Cells + HC-030031 50 μM

Chain of hTRPA1 ARD recombinant protein (O75762 62-609): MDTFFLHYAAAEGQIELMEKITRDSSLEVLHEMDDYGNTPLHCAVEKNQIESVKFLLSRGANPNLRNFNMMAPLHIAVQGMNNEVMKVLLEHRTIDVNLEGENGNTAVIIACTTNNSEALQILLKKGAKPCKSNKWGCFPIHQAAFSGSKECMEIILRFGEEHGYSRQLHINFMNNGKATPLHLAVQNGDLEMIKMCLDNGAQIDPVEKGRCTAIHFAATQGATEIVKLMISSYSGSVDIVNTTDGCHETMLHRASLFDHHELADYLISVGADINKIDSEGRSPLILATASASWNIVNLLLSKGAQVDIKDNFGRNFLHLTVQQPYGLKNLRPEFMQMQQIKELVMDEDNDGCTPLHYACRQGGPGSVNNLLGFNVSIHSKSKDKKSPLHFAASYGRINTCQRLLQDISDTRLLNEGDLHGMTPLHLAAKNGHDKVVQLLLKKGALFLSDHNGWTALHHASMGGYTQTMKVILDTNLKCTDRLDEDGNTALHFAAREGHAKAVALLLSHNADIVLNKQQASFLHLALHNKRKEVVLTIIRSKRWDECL

| SMILES | TRPA1 mRNA expression with HC-030031 pre-treatment compared with AHs treatment alone (TRPA1 mRNA in A549 cells) | expression of TRPA1 mRNA compared with 0 μM AHs (TRPA1 mRNA in A549 cells) | calcium influx compared with 0 μM AHs [1] | calcium influx with HC-030031 pre-treatment compared with AHs treatment alone [1] | Kd [2] [µM] | kon [2] [M⁻¹ s⁻¹] | koff [2] [s⁻¹] | viability of A549 cells compared with 0 μM AHs (A549 cells) | viability with HC-030031 pre-treatment compared with AHs treatment alone (A549 cells) | IC50 (A549 cells; [4]) [mM] | IC50 (A549 cells; [5]) [mM] | calcium influx with KO of TRPA1 compared with AHs-treated WT cells [3] | association constant (ka) ([2]; 1:1 model, TraceDrawer) [M⁻¹ s⁻¹] | dissociation constant (kd) ([2]; 1:1 model, TraceDrawer) [s⁻¹] |
| --- | --- | --- | --- | --- | --- | --- | --- | --- | --- | --- | --- | --- | --- | --- |
| CCc1cccc(C)c1N(C(=O)CCl)C(C)COC (stereo not drawn) [Metolachlor, metolachlor] | significantly reduced | significantly increased | significantly increased | significantly decreased calcium influx | 364 | 112 | 0.0408 | significantly decreased | significantly increased viability | 0.43 | 0.62 | significantly decreased calcium influx |  |  |
| CCCOCCN(C(=O)CCl)c1c(CC)cccc1CC [Pretilachlor, pretilachlor] | albeit not significantly | significantly increased | significantly increased | significantly decreased calcium influx | 309 |  |  | significantly decreased | significantly increased viability | 2.33 | 4.46 | significantly decreased calcium influx | 14.3 | 0.00443 |
| CCC(=O)Nc1ccc(Cl)c(Cl)c1 [Propanil, propanil] | significantly reduced | significantly increased | significantly increased | significantly decreased calcium influx | 16.2 | 2390 | 0.0388 | significantly decreased | significantly increased viability | 0.831 | 2.29 | significantly decreased calcium influx |  |  |
